According to PubChem BioAssay (NCI):
Several values for one entry are separate records, joined by “and”; a condition that tells them apart may be missing. Equal entries are not always repeated.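 GI50 is the concentration that inhibits growth by half. TGI denotes the concentration required for complete inhibition of growth.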

Key:
Test in all cases: inhibition of tumour cell growth, NCI panel, 384-well format
OVCAR-8 ovarian = system: OVCAR-8 ovarian
MCF7 breast = system: MCF7 breast
SW-620 colon = system: SW-620 colon
NCI-H460 NSCLC = system: NCI-H460 NSCLC
MALME-3M melanoma = system: MALME-3M melanoma
RPMI-8226 leukemia = system: RPMI-8226 leukemia
BT-549 breast = system: BT-549 breast
NCI-H522 lung = system: NCI-H522 lung
SNB-75 CNS = system: SNB-75 CNS
RXF 393 renal = system: RXF 393 renal
SK-OV-3 ovarian = system: SK-OV-3 ovarian
OVCAR-3 ovarian = system: OVCAR-3 ovarian
K-562 leukemia = system: K-562 leukemia
786-0 renal = system: 786-0 renal
SR leukemia = system: SR leukemia
UACC-62 melanoma = system: UACC-62 melanoma
COLO 205 colon = system: COLO 205 colon
HCC-2998 colon = system: HCC-2998 colon
NCI-H322M lung = system: NCI-H322M lung
MDA-MB-231 breast = system: MDA-MB-231 breast
KM12 colon = system: KM12 colon
HCT-116 colon = system: HCT-116 colon
SF-295 CNS = system: SF-295 CNS
ACHN renal = system: ACHN renal
HCT-15 colon = system: HCT-15 colon
U251 glioblastoma = system: U251 glioblastoma
A498 renal = system: A498 renal
HOP-92 NSCLC = system: HOP-92 NSCLC
TK-10 renal = system: TK-10 renal
HS 578T breast = system: HS 578T breast

SMILES: Cn1cc(-c2nc(N[C@@H]3CCCC[C@@H]3N)c(F)c3c2C(=O)NC3)cn1
- TGI (OVCAR-8 ovarian): 19.4 µM and 25.2 µM
- GI50 (MCF7 breast): 2.89 µM and 19.2 µM
- TGI (MCF7 breast): 36.5 µM and 81.2 µM
- GI50 (SW-620 colon): 2.37 µM and 5.69 µM
- TGI (SW-620 colon): 7.78 µM and 25.8 µM
- GI50 (NCI-H460 NSCLC): 2.61 µM and 3.15 µM
- TGI (NCI-H460 NSCLC): 13.5 µM and 14.3 µM
- GI50 (MALME-3M melanoma): 6.89 µM and 4.15 µM
- TGI (MALME-3M melanoma): 22.2 µM and 26 µM
- GI50 (RPMI-8226 leukemia): 0.537 µM and 1.52 µM
- TGI (RPMI-8226 leukemia): 2.19 µM and 4.13 µM
- GI50 (BT-549 breast): 2.17 µM and 5.01 µM
- TGI (BT-549 breast): 5.18 µM and 15.9 µM
- GI50 (NCI-H522 lung): 1.64 µM and 3.56 µM
- TGI (NCI-H522 lung): 6.01 µM and 15.4 µM
- GI50 (SNB-75 CNS): 1.88 µM and 5.16 µM
- TGI (SNB-75 CNS): 4.98 µM and 19.4 µM
- GI50 (RXF 393 renal): 0.596 µM and 2.12 µM
- TGI (RXF 393 renal): 3.57 µM and 13 µM
- GI50 (SK-OV-3 ovarian): 2.07 µM and 10.8 µM
- TGI (SK-OV-3 ovarian): 21.5 µM and 65.8 µM
- GI50 (OVCAR-3 ovarian): 9.28 µM and 9.39 µM
- TGI (OVCAR-3 ovarian): 24.7 µM and 34.3 µM
- GI50 (K-562 leukemia): 2.93 µM and 3.44 µM
- TGI (K-562 leukemia): 14 µM and 18.6 µM
- GI50 ([…]-0 renal): 5.53 µM and 4.81 µM
- TGI (786-0 renal): 17.9 µM and 18.3 µM
- GI50 (SR leukemia): 0.535 µM and 0.17 µM
- TGI (SR leukemia): 1.78 µM and 0.447 µM
- GI50 (UACC-62 melanoma): 13.3 µM
- TGI (UACC-62 melanoma): 39.5 µM
- GI50 (COLO 205 colon): 1.45 µM and 1.85 µM
- TGI (COLO 205 colon): 2.9 µM and 3.53 µM
- TGI (HCC-2998 colon): 20.6 µM and 38.7 µM
- GI50 (NCI-H322M lung): 15.5 µM and 28.7 µM
- TGI (NCI-H322M lung): 38.9 µM and > 100 µM
- GI50 (MDA-MB-231 breast): 5 µM and 10.4 µM
- TGI (MDA-MB-231 breast): 17.7 µM and 22.9 µM
- GI50 (KM12 colon): 0.339 µM and 0.445 µM
- TGI (KM12 colon): 25.2 µM and 45.1 µM
- GI50 (HCT-116 colon): 2.04 µM and 2.98 µM
- TGI (HCT-116 colon): 17.3 µM and 17.9 µM
- GI50 (SF-295 CNS): 0.675 µM and 3.12 µM
- TGI (SF-295 CNS): 2.81 µM and 11.7 µM
- GI50 (ACHN renal): 2 µM and 6.59 µM
- TGI (ACHN renal): 59.2 µM and > 100 µM
- GI50 (HCT-15 colon): 5.33 µM and 10.6 µM
- TGI (HCT-15 colon): 28.3 µM and > 100 µM
- GI50 (U251 glioblastoma): 14.2 µM and 17.6 µM
- TGI (U251 glioblastoma): 27.9 µM and 32.8 µM
- GI50 (A498 renal): 0.559 µM and 1.3 µM
- TGI (A498 renal): 10.4 µM and 8.94 µM
- GI50 (HOP-92 NSCLC): 3.89 µM and 5.41 µM
- TGI (HOP-92 NSCLC): 15.6 µM and 18.3 µM
- GI50 (TK-10 renal): 3.87 µM and 12.1 µM
- TGI (TK-10 renal): 17.5 µM and 26.9 µM
- GI50 (HS 578T breast): 2.21 µM and 11 µM
- TGI (HS 578T breast): 12.1 µM and 25.5 µM
